Laboratory results from ChEMBL document CHEMBL3885861, “Open TG-GATES”.

Species on record: Rattus norvegicus
Assay: Open TG-GATES - Regimen: Single
Format: toxicity, organism-based, Sprague-Dawley
Set-up: regimen Single, gender Male, age 6 weeks
Settings: in vivo, po, 100 mg/kg, route gavage, dose level Low; for APTT / Bas / Eos / Fbg / Hb / Ht / Lym / MCHC / MCV / Mono / Neu / PT / Plat / RBC / Ret / WBC: tissue Blood; for KIDNEY_L / KIDNEY_R / KIDNEY_TOTAL: tissue Kidney; for LIVER: tissue Liver

CN(C)C(=N)N=C(N)N [METFORMIN]
APTT (3 h): 16 s
Bas (3 h): 0%
Eos (3 h): 0.8%
Fbg (3 h): 241.8 mg/dL
Hb (3 h): 13.2 g/dL
Ht (3 h): 39.9%
Lym (3 h): 77.2%
MCHC (3 h): 33.1%
MCV (3 h): 65.8 fL
Mono (3 h): 3.4%
Neu (3 h): 18.2%
PT (3 h): 12.3 s
Plat (3 h): 118.9 x10_4/uL
RBC (3 h): 607.2 x10_4/ul
Ret (3 h): 10%
WBC (3 h): 81.3 x10_2/uL
KIDNEY_L (3 h): 0.9 g
KIDNEY_R (3 h): 0.8 g
KIDNEY_TOTAL (3 h): 1.7 g
LIVER (3 h): 8.3 g
ALP (3 h, tissue Plasma): 1250.2 IU/L
AST (3 h, tissue Plasma): 72.4 IU/L
BUN (3 h, tissue Plasma): 8.4 mg/dL
CRE (3 h, tissue Plasma): 0.2 mg/dL
Ca (3 h, tissue Plasma): 11.2 mg/dL
Cl (3 h, tissue Plasma): 105.2 meq/L
DBIL (3 h, tissue Plasma): 0.008 mg/dL
GLC (3 h, tissue Plasma): 168.4 mg/dL
IP (3 h, tissue Plasma): 8.7 mg/dL
K (3 h, tissue Plasma): 4.3 meq/L
LDH (3 h, tissue Plasma): 62.6 IU/L
Na (3 h, tissue Plasma): 139.4 meq/L
PL (3 h, tissue Plasma): 135.8 mg/dL
RALB (3 h, tissue Plasma): 2.5 g/dL
TBIL (3 h, tissue Plasma): 0.042 mg/dL
TC (3 h, tissue Plasma): 83.6 mg/dL
TG (3 h, tissue Plasma): 54.6 mg/dL
TP (3 h, tissue Plasma): 5.1 g/dL
gamma-GTP (3 h, tissue Plasma): 1.2 IU/L
TERMINAL_BW (6 h): 200.6 g
APTT (6 h): 16 s
Bas (6 h): 0%
Eos (6 h): 0.8%
Fbg (6 h): 249 mg/dL
Hb (6 h): 12.8 g/dL
Ht (6 h): 38.8%
Lym (6 h): 75.2%
MCHC (6 h): 33%
MCV (6 h): 63.6 fL
Mono (6 h): 3.4%
Neu (6 h): 19.6%
PT (6 h): 12.4 s
Plat (6 h): 125.3 x10_4/uL
RBC (6 h): 610.4 x10_4/ul
Ret (6 h): 9.8%
WBC (6 h): 95.4 x10_2/uL
KIDNEY_L (6 h): 0.9 g
KIDNEY_R (6 h): 0.9 g
KIDNEY_TOTAL (6 h): 1.7 g
LIVER (6 h): 7.8 g
ALT (6 h, tissue Plasma): 55.4 IU/L
AST (6 h, tissue Plasma): 84.6 IU/L
BUN (6 h, tissue Plasma): 8.2 mg/dL
CRE (6 h, tissue Plasma): 0.1 mg/dL
Ca (6 h, tissue Plasma): 10.8 mg/dL
Cl (6 h, tissue Plasma): 105.4 meq/L
DBIL (6 h, tissue Plasma): 0.008 mg/dL
GLC (6 h, tissue Plasma): 168.4 mg/dL
IP (6 h, tissue Plasma): 10.2 mg/dL
K (6 h, tissue Plasma): 4.2 meq/L
LDH (6 h, tissue Plasma): 71.8 IU/L
Na (6 h, tissue Plasma): 139.2 meq/L
PL (6 h, tissue Plasma): 124 mg/dL
RALB (6 h, tissue Plasma): 2.4 g/dL
TBIL (6 h, tissue Plasma): 0.046 mg/dL
TG (6 h, tissue Plasma): 26.8 mg/dL
TP (6 h, tissue Plasma): 5 g/dL
gamma-GTP (6 h, tissue Plasma): 1.2 IU/L
TERMINAL_BW (9 h): 201.1 g
APTT (9 h): 16.1 s
